Marks after values point to notes of the source that are not given here.
Tests used:
[1] = Blood-to-plasma ratio; type: in vitro ADME; settings: human, whole blood/plasma
[2] = Single-dose crossover: bioavailability of Compound 1/Compound 2 mini-tablets; type: in vivo, human; settings: for Cmax / AUC(0-inf) / AUC(0-t) / half-life / Tmax: human, in vivo, oral, N = 14; for Cmax / AUC(0-inf) / AUC(0-t): geometric mean; for half-life: harmonic mean; for Tmax: median
Procedure: In comparison, when administered with food, the mini-tablets provided an AUC that was only 5% lower than that provided by the regular tablets. […] All of the reference AUCs of the regular tablets were measured under fasting conditions.
14 subjects were enrolled in this study and dosed with co-formulated Compound 1/Compound 2 in mini-tablets. One subject spilled 4 mini-tablets (out of 100-150 total mini-tablets) during dosing of Period 2 (Regimen G) and was not excluded from the analysis. The mini-tablets were prepared according to a process similar to that described in Example 2.

[3] = Pharmacokinetic properties in healthy subjects; type: in vivo, human; settings: for Tmax: oral, median, single doses
[4] = clinical; settings: human, in vivo
Description: Target AUC was derived from the geometric mean of AUC values from a population of adult subjects who received Compound 1 and Compound 2.

[5] = Predicted PK exposures (Pop-PK AUC) in pediatric subjects; type: in vivo; design: concentration or dose not given beside the values; settings: human, oral
Description: The predicted PK exposures (“Pop-PK AUC”) of Compound 1/Compound 2 based on all PK information collected in the study (including data from other study weeks) is shown in Table 13 and Table 13a.

[6] = Binding to human plasma proteins; type: in vitro ADME; settings: read-out: % Bound to human plasma proteins (converted)
[7] = Mass balance studies with [14C] compound, single dose; type: in vivo, human; settings: single dose of [14C] compound
[8] = molecular target: P-gp (Homo sapiens, UniProt P08183); test: Substrate of transporter P-gp; type: in vitro ADME
[9] = Phase 1 single-dose crossover: bioavailability and food effect of Compound 1/Compound 2 bilayer tablets; type: in vivo, human; settings: for Cmax / AUC(0-inf) / AUC(0-t) / half-life / Tmax: human, in vivo, oral, N = 23; for Cmax / AUC(0-inf) / AUC(0-t): geometric mean; for half-life: harmonic mean; for Tmax: median
Procedure: Phase 1, single-dose, four-period, randomized, complete crossover clinical trials were conducted to determine the bioavailability and food effect of the Compound 1/Compound 2 film-coated bilayer tablets. Tablets described in Table 1b were used in Regimens A, B and C, and separate tablets containing either Compound 1 or Compound 2 were used in Regimen D. Subjects took a single dose of Compound 1/Compound 2 on Day 1 of each Period. There was a washout of 4 days between doses. • i. Regimens A and D: study drugs were taken under fasting conditions. • ii. Regimen B: study drugs were taken approximately 30 minutes after start of moderate-fat breakfast (about 30% calories from fat). • iii. Regimen C: study drugs were taken approx. 30 minutes after start of high-fat breakfast (50% calories from fat). For Regimens A, B and C, the single dose consisted of three tablets of Table 1b, each tablet contains 100 mg/40 mg Compound 1/Compound 2. For Regimen D, the single dose contained three tablets of Compound 1, each of which contained 100 mg Compound 1, as well as three tablets of Compound 2, each of which contained 40 mg Compound 2. [table] [table]

[10] = as above; type: in vivo, human; settings: film-coated vs uncoated bilayer tablets, additional studies
[11] = Steady-state pharmacokinetics of film-coated granules in pediatric subjects by age group; type: in vivo, human; design: Ctrough: unit not given here; settings: for Ctrough / AUC: Week 2; for AUC: human, oral, film-coated granules
Procedure: The study was designed to assess the steady state AUC and to assess the pharmacokinetics (PK) of Compound 1/Compound 2 in pediatric subjects by age group. […] Subjects were enrolled in this study and dosed with film-coated granules containing Compound 1/Compound 2 as generally described above in Example 3. [table] An intensive PK sample draw was done at the Week 2 visit with blood samples taken immediately prior to dose (0 hour) and at 2, 4, 6, and 12 hours post dose.

[12] = Regimen F: single dose mini-tablets 200 mg/120 mg, fasting
[13] = Regimen G: single dose mini-tablets 200 mg/120 mg, non-fasting
[14] = Regimen J: two Compound 1 tablets (100 mg each) and three Compound 2 tablets (40 mg each), fasting
[15] = mean systemic exposure with moderate to high fat meals
[16] = Regimen A: single dose bilayer tablets 300 mg/120 mg, fasting
[17] = Regimen B: single dose bilayer tablets 300 mg/120 mg with moderate fat breakfast
[18] = Regimen C: single dose bilayer tablets 300 mg/120 mg with high fat breakfast
[19] = Regimen D: single dose separate Compound 1 tablets (3 × 100 mg) and Compound 2 tablets (3 × 40 mg), fasting

Sequence of P-gp (P08183 whole entry): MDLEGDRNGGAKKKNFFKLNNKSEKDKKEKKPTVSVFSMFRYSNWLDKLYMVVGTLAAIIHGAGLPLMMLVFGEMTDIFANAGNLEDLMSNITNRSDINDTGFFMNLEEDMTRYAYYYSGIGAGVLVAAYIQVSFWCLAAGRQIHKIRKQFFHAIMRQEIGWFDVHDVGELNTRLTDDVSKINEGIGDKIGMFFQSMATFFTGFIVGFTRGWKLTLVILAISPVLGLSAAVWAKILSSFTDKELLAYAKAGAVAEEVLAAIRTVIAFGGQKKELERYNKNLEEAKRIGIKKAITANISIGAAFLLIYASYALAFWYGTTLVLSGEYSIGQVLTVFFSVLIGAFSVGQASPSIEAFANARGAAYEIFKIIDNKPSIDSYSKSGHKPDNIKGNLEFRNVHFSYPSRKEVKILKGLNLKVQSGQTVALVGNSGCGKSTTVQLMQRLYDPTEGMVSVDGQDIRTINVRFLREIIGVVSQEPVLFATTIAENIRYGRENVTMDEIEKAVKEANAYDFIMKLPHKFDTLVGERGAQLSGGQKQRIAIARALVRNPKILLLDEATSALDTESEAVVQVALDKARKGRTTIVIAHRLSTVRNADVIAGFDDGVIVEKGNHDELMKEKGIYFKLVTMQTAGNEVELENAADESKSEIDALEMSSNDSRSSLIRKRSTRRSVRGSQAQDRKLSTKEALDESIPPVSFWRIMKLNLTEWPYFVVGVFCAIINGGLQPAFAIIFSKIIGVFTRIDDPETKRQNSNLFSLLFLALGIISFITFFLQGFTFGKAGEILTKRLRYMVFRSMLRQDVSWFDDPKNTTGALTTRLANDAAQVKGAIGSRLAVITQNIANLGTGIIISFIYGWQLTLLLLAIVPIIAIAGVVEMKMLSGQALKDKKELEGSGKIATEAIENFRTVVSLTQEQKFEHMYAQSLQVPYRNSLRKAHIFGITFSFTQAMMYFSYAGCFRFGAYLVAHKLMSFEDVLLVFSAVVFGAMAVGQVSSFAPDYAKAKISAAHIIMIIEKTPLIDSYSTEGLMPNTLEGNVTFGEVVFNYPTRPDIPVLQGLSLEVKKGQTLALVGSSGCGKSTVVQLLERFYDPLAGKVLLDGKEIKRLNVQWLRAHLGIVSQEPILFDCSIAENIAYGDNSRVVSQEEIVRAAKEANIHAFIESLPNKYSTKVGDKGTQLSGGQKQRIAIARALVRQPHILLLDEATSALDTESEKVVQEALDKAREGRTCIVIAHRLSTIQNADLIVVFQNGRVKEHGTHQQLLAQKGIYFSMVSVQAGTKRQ

CC(C)(C)[C@@H]1NC(=O)O[C@@H]2CCC[C@H]2OC/C=C/C(F)(F)c2nc3ccccc3nc2O[C@@H]2C[C@@H](C(=O)N[C@]3(C(=O)NS(=O)(=O)C4(C)CC4)C[C@H]3C(F)F)N(C2)C1=O [Compound 1]
blood plasma ratio [1]: 0.57 | Effect of administration with food on bioavailability ([2]; co-formulated mini-tablets): significantly increased | Cmax ([2]; Regimen F: single dose mini-tablets 200 mg/120 mg Compound 1/Compound 2, fasting): 123 ng/mL | AUC(0-inf) [2, 12]: 432 ng·h/mL | AUC(0-t) [2, 12]: 428 ng·h/mL | half-life [2, 12]: 5.61 h | Tmax [2, 12]: 1 h | Cmax ([2]; Regimen G: single dose mini-tablets 200 mg/120 mg Compound 1/Compound 2, non-fasting): 166 ng/mL | AUC(0-inf) [2, 13]: 704 ng·h/mL | AUC(0-t) [2, 13]: 699 ng·h/mL | half-life [2, 13]: 6.42 h | Tmax [2, 13]: 1.75 h | Cmax ([2]; Regimen J: single dose two Compound 1 tablets (100 mg each) and three Compound 2 tablets (40 mg each), fasting): 212 ng/mL | AUC(0-inf) [2, 14]: 742 ng·h/mL | AUC(0-t) [2, 14]: 738 ng·h/mL | half-life [2, 14]: 5.93 h | Tmax [2, 14]: 1.5 h | AUC of mini-tablets lower than that of regular tablets (fasting) ([2]; mini-tablets with food, 200 mg Compound 1): 5% | AUC of mini-tablets lower than that of regular tablets (fasting) ([2]; mini-tablets without food, 200 mg Compound 1 / 120 mg Compound 2, same solid dispersion formulation): 41% | Metabolism ([3]; Biotransformation): Secondary | Major route of elimination ([3]; human, in vivo): Biliary | Tmax ([3]; human, in vivo, healthy subjects, read-out: Tmax of granules): 3 to 4 h | Tmax ([3]; human, in vivo, healthy subjects, read-out: Tmax of tablets): 5 h | half-life ([3]; human, in vivo, healthy subjects, read-out: t1/2 at steady-state): 6 to 9 h | Effect of meal (relative to fasting) on adult tablets, ↑ [3, 15]: ↑ 83-163% | Effect of meal (relative to fasting) on granules, ↑ [3, 15]: ↑ 131-168% | AUC [4]: 4800 ng·h/mL | AUC ([5]; blood, Table 13, 3 to <6 years old, N 10, predicted): 6310 ng·h/mL | AUC ([5]; blood, Table 13, 6 to <9 years old, N 9, predicted): 5770 ng·h/mL | AUC ([5]; blood, Table 13, 9 to <12 years old, N 10, predicted from all PK information collected in the study): 5180 ng·h/mL | AUC ([5]; in vivo, Table 13a, 3 to <6 years old, N 10, predicted): 8990 ng·h/mL | AUC ([5]; in vivo, Table 13a, 6 to <9 years old, N 9, predicted): 5160 ng·h/mL | AUC ([5]; in vivo, Table 13a, 9 to <12 years old, N 10, predicted): 8120 ng·h/mL | fraction unbound [6]: 0.025 | % of dose excreted in faeces [7]: 92.1^d % | % of dose excreted in urine [7]: 0.7% | Substrate of transporter [8]: P-gp, | Effect of administration with food on bioavailability ([9]; bilayer tablets): significantly improved | Cmax ([9]; Regimen A: single dose bilayer tablets 300 mg/120 mg (3 × 100 mg/40 mg), fasting): 294 ng/mL | AUC(0-inf) [9, 16]: 1150 ng·h/mL | AUC(0-t) [9, 16]: 1150 ng·h/mL | half-life [9, 16]: 6 h | Tmax [9, 16]: 3 h | AUC(0-inf) [9, 17]: 3040 ng·h/mL | AUC(0-t) [9, 17]: 3040 ng·h/mL | Cmax [9, 17]: 937 ng/mL | half-life [9, 17]: 6 h | Tmax [9, 17]: 4 h | AUC(0-inf) [9, 18]: 2120 ng·h/mL | AUC(0-t) [9, 18]: 2110 ng·h/mL | Cmax [9, 18]: 633 ng/mL | half-life [9, 18]: 6.3 h | Tmax [9, 18]: 5 h | AUC(0-inf) [9, 19]: 2620 ng·h/mL | AUC(0-t) [9, 19]: 2620 ng·h/mL | Cmax [9, 19]: 803 ng/mL | half-life [9, 19]: 5.7 h | Tmax [9, 19]: 2 h | Impact of film-coating on bioavailability [10]: minimal impact | Ctrough ([11]; 3 to <6 years old, post-adjustment 150 mg/60 mg, N 10): 9.8 | Ctrough ([11]; 6 to <9 years old, post-adjustment 200 mg/80 mg, N 9): 8.2 | Ctrough ([11]; 9 to <12 years old, post-adjustment 250 mg/100 mg, N 10): 17.0 | AUC ([11]; blood, 3 to <6 years old, post-adjustment, 3 sachets, 150 mg/60 mg, N 10, read-out: AUC): 6700 ng·h/mL | AUC ([11]; blood, 6 to <9 years old, post-adjustment, 4 sachets, 200 mg/80 mg, N 9, read-out: AUC): 5970 ng·h/mL | AUC ([11]; blood, 9 to <12 years old, post-adjustment, 5 sachets, 250 mg/100 mg Compound 1/Compound 2, N 10, read-out: AUC): 8670 ng·h/mL | AUC ([11]; in vivo, 3 to <6 years old, pre-adjustment, 3 sachets, 120 mg/45 mg, read-out: AUC, Geometric Mean): 3030 ng·h/mL | AUC ([11]; in vivo, 6 to <9 years old, pre-adjustment, 4 sachets, 160 mg/60 mg, read-out: AUC, Geometric Mean): 1680 ng·h/mL | AUC ([11]; in vivo, 9 to <12 years old, pre-adjustment, 5 sachets, 200 mg/75 mg Compound 1/Compound 2, read-out: AUC, Geometric Mean): 4070 ng·h/mL | Exposures in children aged 3 to <12 years vs adolescents 12 to <18 years and adults from Phase 2/3 studies ([11]; recommended doses according to body weight): comparable
